Data as given in US20110274679A1, “Compositions and Methods of SIRT Activation” (VDF FutureCeuticals, Inc., priority 2008, published 2011).

Tested on: SIRT
Assay: in vitro SIRT activity in treated cells, lysed after treatment (BioMol SIRT Activity Assay kit)
Assay type: cell-based
Settings: depending on the cell line; positive control
Text: Among other suitable combinations, one exemplary SIRT activating combination of B-vitamins was formulated that included a combination of vitamin B2, B1, B3, B6, B12, and B5. Using that combination, HeLa cells were separately treated in vitro for 4 hrs, along with a reference compound (here: resveratrol) as positive control, as well as individually with the respective above vitamins at a total concentrations of 0.1% (wt/vol) of culture medium. To measure SIRT activation, the cells were lysed after treatment and SIRT activity was determined using a commercially available SIRT Activity Assay kit (BioMol, Inc.; Catalog #KI-104).
Moreover, in vitro activation with the known SIRT activator resveratrol was, depending on the cell line, between about 15-120% of untreated control, making the SIRT activation with the vitamin compounds even more remarkable.
In an experiment similar to that above, FIG. 2 depicts further combinations for selected vitamin B compounds in which the columns show the results for A (Riboflavin, vitamin B2), B (Thiamine, vitamin B1), C (Niacinamide, vitamin B3), D (Pyridoxine, vitamin B6), E (Cyanocobolamin, vitamin B12), F (Ca-Panthotenate, vitamin B5), G=Blend of A-F (VSIRT), H (Pyrodoxine, vitamin B6 plus Cobalamin, vitamin B12), 0.05% each, and I (H plus Riboflavin, vitamin B2) (0.033% each). […]

In the case of `Oc1ccc(C=Cc2cc(O)cc(O)c2)cc1` [resveratrol], the “in vitro activation of SIRT” value was 15-120 % of untreated control.
